Measured values published in ChEMBL document CHEMBL1153413, “Pyranonaphthoquinone lactones: a new class of AKT selective kinase inhibitors alkylate a regulatory loop cysteine” (J Med Chem, 2009).
Calls of active or inactive are those of the source. The rule behind the calls is not given here.

Key:
[1] = target: T1, RAC-alpha serine/threonine-protein kinase (Homo sapiens, UniProt P31749); experiment: Inhibition of AKT
[2] = Cytotoxicity against human MDA468 cells expressing AKT; format: functional, cell-based, MDA-MB-468; conditions: Homo sapiens, MDA-MB-468
[3] = target: T1, RAC-alpha serine/threonine-protein kinase; experiment: Inhibition of AKT at < 10 uM

T1 sequence (P31749 whole entry): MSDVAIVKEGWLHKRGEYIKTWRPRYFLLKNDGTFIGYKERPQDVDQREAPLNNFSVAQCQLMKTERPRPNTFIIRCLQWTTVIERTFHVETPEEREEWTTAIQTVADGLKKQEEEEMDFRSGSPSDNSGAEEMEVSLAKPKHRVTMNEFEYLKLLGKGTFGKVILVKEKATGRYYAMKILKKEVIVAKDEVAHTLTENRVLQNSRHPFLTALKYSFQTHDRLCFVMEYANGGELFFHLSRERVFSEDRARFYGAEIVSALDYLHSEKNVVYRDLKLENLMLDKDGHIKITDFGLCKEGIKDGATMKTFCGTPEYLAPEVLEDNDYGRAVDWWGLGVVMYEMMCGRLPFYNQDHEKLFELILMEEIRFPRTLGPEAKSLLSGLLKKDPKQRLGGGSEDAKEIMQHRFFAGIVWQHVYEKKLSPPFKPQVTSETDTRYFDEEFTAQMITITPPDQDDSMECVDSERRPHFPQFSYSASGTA

SMILES	IC50 [1]	Activity [3]	IC50 [2]
CCC[C@H]1O[C@@H]2CC(=O)O[C@@H]2C2=C1C(=O)c1c(OC)cccc1C2=O	497 nM		1110 nM
CCOC(=O)C[C@@H]1CC2=C(C(=O)c3ccccc3C2=O)[C@@H](C)O1		inactive	
CCOC(=O)C[C@@H]1CC2=C(C(=O)c3ccccc3C2=O)[C@@H](c2cccs2)O1		inactive	
CCOC(=O)C[C@@H]1CC2=C(CO1)C(=O)c1ccccc1C2=O		inactive	
CC1(C)O[C@@H]2CC(=O)O[C@@H]2C2=C1C(=O)c1ccccc1C2=O (racemic)	1440 nM		230 nM
Nc1ccc([C@@H]2O[C@@H]3CC(=O)O[C@@H]3C3=C2C(=O)c2ccccc2C3=O)cc1 (racemic)	850 nM		550 nM
CCC[C@@H]1O[C@@H]2CC(=O)O[C@@H]2C2=C1C(=O)c1ccccc1C2=O (racemic)	383 nM		1300 nM

More lines, in order of falling IC50 [1], values ahead:

IC50 [1]	Activity [3]	SMILES	IC50 [2]
350 nM		O=C1C[C@H]2O[C@@H](c3cccc(O)c3)C3=C(C(=O)c4ccccc4C3=O)[C@H]2O1 (racemic)	1000 nM
295 nM		O=C1C[C@H]2OC3(CCCC3)C3=C(C(=O)c4ccccc4C3=O)[C@H]2O1 (racemic)	1600 nM
163 nM		CCC[C@H]1O[C@@H]2CC(=O)O[C@@H]2C2=C1C(=O)c1ccccc1C2=O (racemic)	600 nM
150 nM		C[C@H]1O[C@@H]2CC(=O)O[C@@H]2C2=C1C(=O)c1ccccc1C2=O	480 nM
80 nM		O=C1C[C@H]2O[C@@H](c3ccc(O)cc3)C3=C(C(=O)c4ccccc4C3=O)[C@H]2O1 (racemic)	550 nM
72 nM		O=C1C[C@H]2O[C@H](COCc3ccccc3)C3=C(C(=O)c4ccccc4C3=O)[C@H]2O1 (racemic)	1000 nM
57 nM		O=C1C[C@H]2O[C@H](c3cccs3)C3=C(C(=O)c4ccccc4C3=O)[C@H]2O1	600 nM
44 nM		O=C1C[C@H]2OCC3=C(C(=O)c4ccccc4C3=O)[C@H]2O1	800 nM
